A short description of data set [1]: CD spectroscopy, α-helicity by CONTIN-LL. To be noted: for helix %: CONTINLL from CD spectra, Avg of replicates Ⅰ-Ⅲ; for α-Helicity, helix % avg: CD spectra, CONTINLL, summary table, mean of n = 3. It counts as physicochemical. The procedure:
CD spectra were measured using a J-810 spectropolarimeter (JASCO, Japan). Spectra were recorded from 250 nm to 190 nm wavelength using a 1 cm path-length cuvette. Scans were repeated five times and averaged. Molar ellipticity was calculated per amino acid residue. The concentrations of SNCP and p53pep were 0.2 mg/mL and 20 μM, respectively. All sample suspensions were incubated at least for 2 days at room temperature before CD measurement. To perform temperature-dependent CD experiments, the spectra were recorded at 10 °C interval over a temperature range of 25 to 75 °C, with 30 min incubation time to reach equilibrium at each temperature. The α-helicity of peptides was calculated by using the CONTIN-LL algorithms provided from the DICHROWEB server.

The target in data set [2] is T1, MDM2_1-118 (hMDM2 protein) (Homo sapiens, UniProt Q00987).
T1 construct: purchased SignalChem (Canada)
T1 sequence (Q00987 1-118): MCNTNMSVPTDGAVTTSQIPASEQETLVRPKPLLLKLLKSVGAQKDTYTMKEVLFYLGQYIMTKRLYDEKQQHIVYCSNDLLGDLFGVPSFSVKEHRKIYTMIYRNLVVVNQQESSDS
Briefly: Fluorescence polarization binding affinity. The settings on record: peptide 50 nM, PBS pH 7.4, 0.01% Tween20, 10 mM DTT, 2% DMSO, room temperature, N = 3, mean ± SD. The procedure:
Each of p53pep and st-p53pep (50 nM) were incubated with MDM2_1-118 with various concentrations in binding assay buffer (PBS pH 7.4 with 0.01% Tween20, 10 mM DTT, 2% DMSO) at room temperature. Binding affinity was measured by fluorescence polarization on a Biotek Synergy Neo2 multi-mode microplate reader. Kd values were determined by nonlinear regression analysis.

The next data set relates to HepG2 cells. Description: CCK-8 cell viability. In kind it is cell-based, human. The settings on record: 24 h, 50. The procedure:
Human liver cancer cell line HepG2 were grown in DMEM containing 10% FBS and 1% penicillin/streptomycin at 37 °C in a humidified atmosphere of 5% CO2. HepG2 cells (1.2 × 10^5 cells/well) were seeded in a 4-well glass plate for 24 h. Then, SNCPs@st-p53pep (0.02 mg/mL) and st-p53pep alone (2 μM) were added to each well in a serum-free medium for 4 h. After incubation, the cells were carefully rinsed with PBS, and the medium was replaced with a serum-containing fresh medium. After the nucleus was stained with Hoechst 33342 staining kit by manufacturer’s protocol, bright field and fluorescence images were obtained by using a DeltaVision Elite Microscopy System (GE Healthcare, USA). To observe the distribution of SNCP8 and st-p53pep in cells, TAMRA-labeled SNCP8@FAM-labeled st-p53pep (0.25 mg/mL) was treated in the same manner instead of SNCP8@st-p53pep. And then, the Mander’s overlap coefficient (MOC) was calculated in the Image J program (ver. 1.52a) via the JACoP plugin to identify co-localization between fluorescence signals over time. […] The cell viability was determined using cell counting kit-8 (CCK-8) assay by monitoring absorbance at 450 and 670 nm wavelength measured using a microplate reader (Molecular Devices, Inc., USA). The EC50 values of SNCPs@st-p53pep were determined by the logistic curve-fitting method with Origin (OriginLab, USA).

Data set [3] has as its target proteinase K (Parengyodontium album, UniProt P06873). Briefly: in vitro. It counts as in vitro ADME. The procedure: (§1) To investigate whether SNCP8@st-p53pep could effectively suppress tumor growth in vivo, we evaluated the anti-tumor effect of SNCP8@st-p53pep using human liver cancer (HepG2) xenograft bearing mouse model. Mice were treated with SNCP8@st-p53pep and controls by intratumoral injection every three days and tumor volume changes were monitored for 14 days. […] Next, we monitored distribution of TAMRA-SNCP8 (red), FAM-st-p53pep (green), and TAMRA-SNCP8@FAM-st-p53pep in the tumor-bearing mouse overtime after intratumoral injection. As shown in Fig. 5b and Supplementary Fig. 20, green fluorescence signal in the tumor treated with TAMRA-SNCP8@FAM-st-p53pep slowly diminished during 72 h, while signal in tumor treated with FAM-st-p53pep alone quickly disappeared within 24 h. […] To compare the lifetime of st-p53pep in tumor more precisely, we calculated the half-life (t1/2) of green fluorescence decay for each sample by analyzing region of interest (ROI) on the basis of whole-body fluorescence image (Fig. 5c).
(§2) Supplementary Figure 19. The proteolytic degradation of p53pep. Semi-quantitative analysis of protease-mediated degradation of p53pep by using the matrix-assisted laser desorption ionization time-of-flight mass spectrometry ( MALDI-TOF MS).
(§3) (a) Mass spectrum of p53pep without SNCP8 (left) and with SNCP8 (right) over 12 h.
(§4) The cumulative remaining p53pep in short (b) and long (c) periods in different conditions: p53pep (circle) and SNCP8@p53pep (square). Rapid degradation of free p53pep within 1 min is observed while the degradation of p53pep inside the SNCP8 […]
(§5) proteinase K (N = 3, biologically independent samples; mean ± SD).
(§6) (1 picture or pasted object on this page, not shown here)

For data set [4], the system named is proteinase K. Briefly: in vitro. It counts as in vitro ADME. To be noted: isolated enzyme proteinase k. The procedure: as §1, §2, §3, §4, §5, §6
A short description of data set [5]: Water solubility (in words). In kind it is physicochemical.
Data set [6] addresses stapled p53 peptide prepared by click reaction (st-p53pep). Description: fluorescence polarisation; 50 nM FAM-labelled peptide incubated with MDM2(1-118) at various concentrations; PBS pH 7.4 with 0.01% Tween20, 10 mM DTT, 2% DMSO; room temperature; Kd by nonlinear regression. Background: Fluorescence polarisation rises when a labelled molecule tumbles more slowly, as on binding a larger partner.

Data set [7] has as its target synthetic p53 peptide (p53pep). Described as above.
For data set [8], the target named is MDM2(1-118), a part of the target protein possessing the p53pep binding site (UniProt Q00987).
MDM2(1-118), a part of the target protein possessing the p53pep binding site (UniProt Q00987), sequence (Q00987 1-118): as above

MDM2(1-118), a part of the target protein possessing the p53pep binding site (from UniProt Q00987 1-118) (domain or fragment), sequence (Q00987 1-118): as above
proteinase K (Parengyodontium album, UniProt P06873), sequence (P06873 106-384, species assumed): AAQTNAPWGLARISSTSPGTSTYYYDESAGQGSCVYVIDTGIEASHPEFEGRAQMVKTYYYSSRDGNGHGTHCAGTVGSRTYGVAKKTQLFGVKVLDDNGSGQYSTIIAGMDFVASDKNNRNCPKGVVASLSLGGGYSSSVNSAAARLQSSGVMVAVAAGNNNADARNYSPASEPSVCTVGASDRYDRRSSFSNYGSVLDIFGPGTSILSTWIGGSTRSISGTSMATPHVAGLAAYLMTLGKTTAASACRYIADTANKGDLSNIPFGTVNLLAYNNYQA

As a reminder, the Kd is the concentration at which binding is half-saturated. One may read the share remaining as the share of the starting amount still present when the sample was taken. The low end stands for a greater loss, the high end for greater stability. Consider `C#CCCC(=O)NCCCC[C@@H](NC(=O)[C@H](Cc1ccccc1)NC(=O)[C@@H](NC(=O)[C@H](CCC(N)=O)NC(=O)[C@H](CCC(N)=O)NC(=O)[C@H](CO)NC(=O)[C@H](CCC(N)=O)NC(=O)CNC(=O)CNC(=O)c1ccc2c(c1)C(=O)OC21c2ccc(O)cc2Oc2cc(O)ccc21)[C@@H](C)O)C(=O)N[C@@H](CC(N)=O)C(=O)N[C@@H](CC(C)C)C(=O)N[C@@H](Cc1c[nH]c2ccccc12)C(=O)N[C@@H](CCCNC(=N)N)C(=O)N[C@@H](CC(C)C)C(=O)N[C@@H](CC(C)C)C(=O)N[C@@H](CCCN=[N+]=[N-])C(=O)N[C@@H](CCC(N)=O)C(=O)N[C@@H](CC(N)=O)C(N)=O` [p53pep], for which the helix % in data set [1] (25C) was 39.4%; in [1] (35C) it was 35.9%; in data set [1] (45C), 37.5%; in [1] (55C) it was 36.5667%; in [1] (65C), 34.0667%; in data set [1] (75C) it was 35.9667%. Moreover, the “α-Helicity, helix % avg” value in data set [1] (25 ℃) is 39.4%; in data set [1] (35 ℃), 35.9%; in data set [1] (45 ℃), 37.5%. For the same molecule, in data set [2], the Kd was determined as 80.6 ± 2.33 nM. The “cell viability at corresponding dose” value in the data set with HepG2 cells is on record as “more than 80%”. In addition, on proteinase K [3], the “time of degradation by proteinase K” value is given as at most 1 min. Also, the fraction remaining at 1 min with proteinase K [4] was 16.9%. In the data set on proteinase K [4], the share remaining at 0.05 h is 8.39%. Also, the share remaining at 5 min with proteinase K [4] was 5.56%. This molecule also showed a share remaining at 10 min in the data set with proteinase K [4] of 3.21%. In addition, in the data set with proteinase K [4], the share remaining at 0.5 h came to 6.68%. This molecule also returned a share remaining at 1 h in the data set with proteinase K [4] of 9.04%. The same molecule came in with a fraction remaining at 12 h with proteinase K [4] of 3.85%. The “solubility in water (in words)” value in data set [5] was “insoluble in water”.

Turning to “MDM2(1-118), a part of the target protein possessing the p53pep binding site (from UniProt Q00987 1-118) (domain or fragment)”, the Kd was 27.7 nM in [6] and 80.6 nM in data set [7].

As for synthetic p53 peptide (p53pep), the viability of HepG2 cells (CCK-8) at the corresponding dose of SNCP8@p53pep (unstapled peptide delivered in SNCP8) in data set [8] is above 80%.

The values above are taken from article PMC9356039, “Multifunctional synthetic nano-chaperone for peptide folding and intracellular delivery” (Nature Communications, 2022).
